Assay results taken from patent publication US20230190717A1, “P38 GAMMA INHIBITORS AND METHOD OF USE THEREOF” (City of Hope, priority 2017, published 2023).

Key:
[1] = system: p38γ; assay: p38γ mRNA level and protein expression (Western blot); format: cell-based; details: 4 hr
Excerpt: qRT-PCR (real-time quantitative reverse transcription PCR): Total RNA was generated using TRIZOL reagent (Life Technologies, Carlsbad, Calif.) followed by double DNase treatment and column purification using Qiagen RNeasy Clean-up (Qiagen, Germantown, Md.). The Invitrogen […] III First-Strand Synthesis System was used for cDNA synthesis and TaqMan 5700 Sequence Detection System (Applied Biosystems, Foster City, Calif.) were used for qRT-PCR. All PCR reactions were run in triplicate. The amplified transcripts were quantified using the comparative CT method as described. cDNA and primers for MAPK11, 12, 13, and 14 and GAPDH (Table 9) were added to SYBR GREEN PCR Master Mix (SYBR Green I Dye, […]® DNA polymerase, dNTPs with dUTP and optimal buffer components; Applied Biosystems) and subjected to PCR amplification (1 cycle at 95° C. for 3 min; 35 cycles at 95° C. for 15 s and 55° C. for 30 s; 1 cycle at 50° C. for 2 min).

[2] = molecular target: T1, human recombinant p38 α protein (Homo sapiens, UniProt Q16539); assay: ADP-Glo in vitro kinase assay, p38α; format: biochemical
T1 construct: human recombinant p38 α, β, γ or δ protein (active full-length); purchased SignalChem; host or cells: baculovirus in Sf9 insect cells
T1 sequence (Q16539 whole entry): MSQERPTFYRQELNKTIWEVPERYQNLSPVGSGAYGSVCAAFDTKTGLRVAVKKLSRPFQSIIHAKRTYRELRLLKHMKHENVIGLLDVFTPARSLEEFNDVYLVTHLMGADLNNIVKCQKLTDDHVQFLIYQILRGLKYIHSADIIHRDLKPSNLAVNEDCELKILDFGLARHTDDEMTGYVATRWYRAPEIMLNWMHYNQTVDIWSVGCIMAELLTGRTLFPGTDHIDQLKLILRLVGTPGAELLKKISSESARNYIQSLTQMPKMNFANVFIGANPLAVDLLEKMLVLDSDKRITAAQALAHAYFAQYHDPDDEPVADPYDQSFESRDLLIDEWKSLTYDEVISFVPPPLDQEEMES
Protocol: (§1) Kinase assay in vitro: Kinase enzyme assays in vitro were performed using ADP-Glo kit (Promega, Wis.). The luminescent ADP-Glo kinase assay measures ADP produced from ATP consumption in a kinase enzyme reaction. All compounds have been tested and shown no inhibition to luciferase activities. Briefly, in this experiment, human recombinant p38 α, β, γ or δ protein (active full-length) expressed by baculovirus in sf9 insect cells (SignalChem, Vancouver, Canada) was homogenized in wells of white opaque 96-well microplates with the kinase buffer that consisted of 40 mM Tris-HCl (pH 7.5), 20 mM MgCl2, 0.1 mg/mL BSA and 50 μM DTT. […] Next, synthetic peptide substrates ([…]) were added to the mixture at final concentration of 0.2 μg/μL, followed by adding ATP at various concentrations. The 50 μL mixture was reacted at room temperature for 60 min. […]
(§2) In vitro kinase assay (ADP-GLO): We identified p38γ inhibitors using in vitro kinase assay by screening a library of kinase inhibitors: The library consists of 244 compounds on three plates (EMD Cat #539744, #539745, and #539746) that are mostly ATP mimics. […] IC50 values were determined using […] software (Biosoft, Cambridge, United Kingdom).

[3] = molecular target: T2, p38δ (Homo sapiens, UniProt O15264); assay: ADP-Glo in vitro kinase assay, p38δ; format: biochemical; set-up: human recombinant p38 α, β, γ or δ protein (active full-length); purchased SignalChem; host or cells: baculovirus in Sf9 insect cells
T2 sequence (O15264 1-365): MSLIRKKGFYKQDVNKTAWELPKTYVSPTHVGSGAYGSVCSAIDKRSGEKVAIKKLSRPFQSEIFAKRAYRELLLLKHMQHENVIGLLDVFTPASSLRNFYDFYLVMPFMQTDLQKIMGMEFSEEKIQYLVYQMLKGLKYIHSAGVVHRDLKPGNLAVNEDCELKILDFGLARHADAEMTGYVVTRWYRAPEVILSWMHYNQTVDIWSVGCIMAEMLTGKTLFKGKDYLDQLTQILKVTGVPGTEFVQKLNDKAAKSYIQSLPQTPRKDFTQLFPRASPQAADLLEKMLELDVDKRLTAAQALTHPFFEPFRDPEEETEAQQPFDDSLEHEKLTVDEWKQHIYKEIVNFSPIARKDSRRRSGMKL
Protocol: as §1, §2

[4] = system: SS patient cells; assay: Cell viability, SS patient cells; format: cell-based, human; details: SS patient cells (n=2), 100 nM
Protocol: Compound, Samples, and Cell Culture: […] Isolation of PBMCs or CD4^+T cells from both patients and healthy donors and culture of CTCL cell lines (Hut78, HH, and H9) were performed as previously described. […] IC50 values were determined using […] software (Biosoft).

Question: `Cc1ccc([N+](=O)[O-])cc1S(=O)(=O)N(C)/N=C/c1cnc2ccc(Br)cn12` [Compound 1] was tested. Which “mRNA level of p38 gamma” value [1] did it give?
Answer: reduces the mRNA level

Question: What about the “dose-dependent inhibition of kinase activity” value [2] of the same molecule?
Answer: not

Question: What about the IC50 [3] of the same molecule?
Answer: 32.1 to 120 nM

Question: And the cell viability [4]?
Answer: significantly reduced viability
